≈ marks a conversion by molar mass, not a printed value.
What was measured:
[1] = tested on: E. faecium OC3312; experiment: MIC by microdilution broth method (NCCLS), E. faecium OC3312; format: cell-based; conditions: cation adjusted Mueller-Hinton broth, 35° C., 16-20 hours; for MIC: Enterococcus faecium, OC3312, microdilution broth, read-out: MIC (μg/mL) E. faecium OC3312
Procedure: (§1) Minimal inhibitory concentration (MIC) has been an indicator of in vitro antibacterial activity widely used in the art. The in vitro antimicrobial activity of the compounds was determined by the microdilution broth method following the test method from the National Committee for Laboratory Standards (NCCLS). This method is described in the NCCLS Document M7-A4, Vol. 17, No.2, “Methods for Dilution Antimicrobial Susceptibility Test for Bacteria that Grow Aerobically-Fourth Edition”, which is incorporated herein by reference.
(§2) In this method two-fold serial dilutions of drug in cation adjusted Mueller-Hinton broth are added to wells in microdilution trays. The test organisms are prepared by adjusting the turbidity of actively growing broth cultures so that the final concentration of test organism after it is added to the wells is approximately 5×10^4 CFU/well.
(§3) Following inoculation of the microdilution trays, the trays are incubated at 35° C. for 16-20 hours and then read. […] The amount of growth in the wells containing the test compound is compared with the amount of growth in the growth-control wells (no test compound) used in each tray. As set forth in Table 1, compounds of the present invention were tested against a variety of Gram positive and Gram negative pathogenic bacteria resulting in a range of activities, from 1 to ≧128 μg/mL depending on the organism tested.

[2] = tested on: MRSA OC 2878; experiment: MIC by microdilution broth method (NCCLS), MRSA OC 2878; format: cell-based, Staphylococcus aureus; conditions: cation adjusted Mueller-Hinton broth, 35° C., 16-20 hours; for MIC: Staphylococcus aureus, MRSA, read-out: MIC (μg/mL) MRSA OC 2878
Procedure: as §1, §2, §3

[3] = tested on: S. aureus; experiment: MIC by microdilution broth method (NCCLS), S. aureus Broth; format: cell-based; conditions: cation adjusted Mueller-Hinton broth, 35° C., 16-20 hours; for MIC: Staphylococcus aureus, read-out: MIC (μg/mL) S. aureus Broth
Procedure: as §1, §2, §3

COc1ccc(C(=O)N2CCC(Oc3ccc(N4C[C@H](CNC(C)=O)OC4=O)cc3F)CC2)cc1 [Compound 13, (S)-N-[[3-[3-Fluoro-4-{N-(4-methoxybenzoyl)piperidinyl-4-oxy}phenyl]-2-oxo-5-oxazolidinyl]methyl]acetamide]
MIC [1]: 16 µg/mL (≈ 33 µM)
MIC [2]: 8 µg/mL (≈ 16.5 µM)
MIC [3]: 8 µg/mL (≈ 16.5 µM)

CC(=O)NC[C@H]1CN(c2ccc(OC3CCN(C(=O)COCc4ccncc4)CC3)c(F)c2)C(=O)O1 [Compound 54]
MIC [1]: 8 µg/mL (≈ 16 µM)
MIC [2]: 8 µg/mL (≈ 16 µM)
MIC [3]: 8 µg/mL (≈ 16 µM)

CC(=O)NC[C@H]1CN(c2ccc(OC3CCN(C(=O)c4ccncc4)CC3)c(F)c2)C(=O)O1 [Compound 21, (S)-N-[[3-[3-Fluoro-4-{N-(4-pyridoyl)piperidinyl-4-oxy}phenyl]-2-oxo-5-oxazolidinyl]methyl]acetamide]
MIC [1]: 64 µg/mL (≈ 140 µM)
MIC [2]: 32 µg/mL (≈ 70.1 µM)
MIC [3]: 32 µg/mL (≈ 70.1 µM)

CC(=O)NC[C@H]1CN(c2ccc(OC3CCN(S(C)(=O)=O)CC3)cc2)C(=O)O1 [Compound 33, (S)-N-[[3-[4-{N-(Methanesulfonyl)piperidinyl-4-oxy}phenyl]-2-oxo-5-oxazolidinyl]methyl]acetamide]
MIC [1]: 32 µg/mL (≈ 77.8 µM)
MIC [2]: 16 µg/mL (≈ 38.9 µM)
MIC [3]: 16 µg/mL (≈ 38.9 µM)

CC(=O)NC[C@H]1CN(c2ccc(OC3CCN(C(=O)CN4CCOCC4)CC3)c(F)c2)C(=O)O1 [Compound 56]
MIC [1]: 32 µg/mL (≈ 66.9 µM)
MIC [2]: 32 µg/mL (≈ 66.9 µM)
MIC [3]: 32 µg/mL (≈ 66.9 µM)

CC(=O)OCC(=O)N1CC(Oc2ccc(N3C[C@H](CN(C(C)=O)C(=O)COC(C)=O)OC3=O)cc2F)C1 [Compound 60, (S)-N-[[3-[3-Fluoro-4-{N-(acetoxyacetyl)azetidinyl-3-oxy}phenyl]-2-oxo-5-oxazolidinyl]methyl]-N-[α-acetoxyacetyl]acetamide]
MIC [1]: > 128 µg/mL
MIC [2]: 16 µg/mL (≈ 30.6 µM)
MIC [3]: 8 µg/mL (≈ 15.3 µM)

CC(=O)NC[C@H]1CN(c2ccc(OC3CCN(C(=O)COCc4ccccc4)CC3)c(F)c2)C(=O)O1 [Compound 3, (S)-N-[[3-[3-Fluoro-4-{N-(benzyloxyacetyl)piperidinyl-4-oxy}phenyl]-2-oxo-5-oxazolidinyl]methyl]acetamide]
MIC (μg/mL) E. faecium OC3312 ([1]; microdilution broth): 4 µg/mL (≈ 8.01 µM)
MIC (μg/mL) MRSA OC 2878 [2]: 2 µg/mL (≈ 4 µM)
MIC (μg/mL) S. aureus Broth [3]: 4 µg/mL (≈ 8.01 µM)

CC(=O)NC[C@H]1CN(c2ccc(OC3CCN(C(=O)CCc4ccccc4)CC3)c(F)c2)C(=O)O1 [Compound 28, (S)-N-[[3-[3-Fluoro-4-{N-(3-phenyl-propionyl)piperidinyl-4-oxy}phenyl]-2-oxo-5-oxazolidinyl]methyl]acetamide]
MIC [1]: 16 µg/mL (≈ 33.1 µM)
MIC [2]: 8 µg/mL (≈ 16.5 µM)
MIC [3]: 16 µg/mL (≈ 33.1 µM)

CC(=O)NC[C@H]1CN(c2ccc(OC3CCN(C(C)=O)CC3)nc2)C(=O)O1 [Compound 43, (5S)-3-[6-{N-(Acetyl)piperidinyl-4-oxy}-pyridin-3-yl]-5-methylacetamide-oxazolidin-2-one]
MIC [1]: > 128 µg/mL
MIC [2]: 128 µg/mL (≈ 340 µM)
MIC [3]: 128 µg/mL (≈ 340 µM)

CC(=O)NC[C@H]1CN(c2ccc(OC3CCN(C(=O)C(NC(=O)OCc4ccccc4)C(C)C)CC3)nc2)C(=O)O1 (stereo partly drawn) [Compound 50]
MIC [1]: > 64 µg/mL
MIC [2]: 64 µg/mL (≈ 113 µM)
MIC [3]: > 64 µg/mL

CC(=O)NC[C@H]1CN(c2ccc(OC3CCN(C(=O)COCc4ccccc4)CC3)nc2)C(=O)O1 [Compound 42, (5S)-3-[6-{N-(Benzyloxyacetyl)piperidinyl-4-oxy}-pyridin-3-yl]-5-methylacetamide-oxazolidin-2-one]
MIC [1]: > 128 µg/mL
MIC [2]: 32 µg/mL (≈ 66.3 µM)
MIC [3]: 32 µg/mL (≈ 66.3 µM)

CC(=O)NC[C@H]1CN(c2ccc(OC3CCN(C(=O)c4ccno4)CC3)c(F)c2)C(=O)O1 [Compound 52, (S)-N-[[3-[3-Fluoro-4-{N-(5-isoxazolylcarbonyl)piperdinyl-4-oxy}phenyl]-2-oxo-5-oxazolidinyl]methyl]acetamide]
MIC [1]: 4 µg/mL (≈ 8.96 µM)
MIC [2]: 8 µg/mL (≈ 17.9 µM)
MIC [3]: 8 µg/mL (≈ 17.9 µM)

CC(=O)NC[C@H]1CN(c2ccc(OC3CCCN(C(=O)CO)C3)c(F)c2)C(=O)O1 (stereo partly drawn) [Compound 36, (S)-N-[[3-[3-Fluoro-4-{N-(α-hydroxyacetyl)piperidinyl-3-oxy}phenyl]-2-oxo-5-oxazolidinyl]methyl]acetamide]
MIC [1]: 16 µg/mL (≈ 39.1 µM)
MIC [2]: 8 µg/mL (≈ 19.5 µM)
MIC [3]: 8 µg/mL (≈ 19.5 µM)
